Results reported in US20050059669A1, “M-substituted benzoic acid derivatives having integrin alpha v beta 3 antagonistic activity” (priority 1999, published 2005).

How the values were obtained:
GP IIb/IIIa = GP IIb/IIIa (Homo sapiens, UniProt P05106+P08514); assay: GP IIb/IIIa antagonistic activity (method of Pharmacological Test 2 in WO 94/21599); format: binding
Protocol: GP IIb/IIIa antagonistic activity was measured for the compounds according to the present invention. The measurement of the GP IIb/IIIa antagonistic activity was carried out according to the method described in Pharmacological Test 2 in WO 94/21599. As a result, both the compounds prepared in Examples 3 and 6 had significant GP IIb/IIIa antagonistic activity. In particular, the IC50 value of the compound prepared in Example 3 was 2.0 nM.

[1] = target: T1, integrin αvβ3 (vitronectin receptor purified from the human placenta) (Homo sapiens, UniProt P05106+P06756); assay: αvβ3 binding assay (vitronectin-vitronectin receptor binding assay); conditions: vitronectin binding to coated human placenta vitronectin receptor; read-out: integrin αvβ3 antagonistic activity (IC50)
T1 construct: a vitronectin receptor (protein content: 118 mg/ml) purified from the human placenta; from tissue; host or cells: human placenta
T1 sequence (P06756 31-889 limits assumed): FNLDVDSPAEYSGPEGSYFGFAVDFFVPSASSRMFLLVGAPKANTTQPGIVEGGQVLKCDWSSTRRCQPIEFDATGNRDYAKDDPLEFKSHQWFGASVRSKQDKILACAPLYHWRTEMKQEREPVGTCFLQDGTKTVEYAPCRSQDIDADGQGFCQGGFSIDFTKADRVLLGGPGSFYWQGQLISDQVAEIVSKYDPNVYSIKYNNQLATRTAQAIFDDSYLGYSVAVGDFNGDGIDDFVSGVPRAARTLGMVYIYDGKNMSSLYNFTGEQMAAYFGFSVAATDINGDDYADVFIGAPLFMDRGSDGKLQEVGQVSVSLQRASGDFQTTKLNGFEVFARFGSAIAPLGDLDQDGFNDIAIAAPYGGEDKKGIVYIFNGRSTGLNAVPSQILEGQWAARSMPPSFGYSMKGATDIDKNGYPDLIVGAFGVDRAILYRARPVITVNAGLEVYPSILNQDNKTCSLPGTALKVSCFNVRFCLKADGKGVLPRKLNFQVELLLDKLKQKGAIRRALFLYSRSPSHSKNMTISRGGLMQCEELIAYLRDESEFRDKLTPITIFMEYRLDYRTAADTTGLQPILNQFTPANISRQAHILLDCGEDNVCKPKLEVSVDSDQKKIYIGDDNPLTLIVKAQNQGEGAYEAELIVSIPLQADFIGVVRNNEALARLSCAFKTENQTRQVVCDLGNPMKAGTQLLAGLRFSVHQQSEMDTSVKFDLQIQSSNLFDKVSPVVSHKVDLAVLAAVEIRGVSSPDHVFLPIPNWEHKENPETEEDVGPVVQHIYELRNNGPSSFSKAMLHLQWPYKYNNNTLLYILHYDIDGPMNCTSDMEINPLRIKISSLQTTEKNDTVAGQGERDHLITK
T1 sequence (P06756 891-1048 partner limits assumed): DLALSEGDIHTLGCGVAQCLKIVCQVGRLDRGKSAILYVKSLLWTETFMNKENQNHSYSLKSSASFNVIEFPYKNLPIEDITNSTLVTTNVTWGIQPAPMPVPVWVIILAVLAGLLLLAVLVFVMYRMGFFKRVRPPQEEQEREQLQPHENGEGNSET
T1 sequence (P05106 27-788): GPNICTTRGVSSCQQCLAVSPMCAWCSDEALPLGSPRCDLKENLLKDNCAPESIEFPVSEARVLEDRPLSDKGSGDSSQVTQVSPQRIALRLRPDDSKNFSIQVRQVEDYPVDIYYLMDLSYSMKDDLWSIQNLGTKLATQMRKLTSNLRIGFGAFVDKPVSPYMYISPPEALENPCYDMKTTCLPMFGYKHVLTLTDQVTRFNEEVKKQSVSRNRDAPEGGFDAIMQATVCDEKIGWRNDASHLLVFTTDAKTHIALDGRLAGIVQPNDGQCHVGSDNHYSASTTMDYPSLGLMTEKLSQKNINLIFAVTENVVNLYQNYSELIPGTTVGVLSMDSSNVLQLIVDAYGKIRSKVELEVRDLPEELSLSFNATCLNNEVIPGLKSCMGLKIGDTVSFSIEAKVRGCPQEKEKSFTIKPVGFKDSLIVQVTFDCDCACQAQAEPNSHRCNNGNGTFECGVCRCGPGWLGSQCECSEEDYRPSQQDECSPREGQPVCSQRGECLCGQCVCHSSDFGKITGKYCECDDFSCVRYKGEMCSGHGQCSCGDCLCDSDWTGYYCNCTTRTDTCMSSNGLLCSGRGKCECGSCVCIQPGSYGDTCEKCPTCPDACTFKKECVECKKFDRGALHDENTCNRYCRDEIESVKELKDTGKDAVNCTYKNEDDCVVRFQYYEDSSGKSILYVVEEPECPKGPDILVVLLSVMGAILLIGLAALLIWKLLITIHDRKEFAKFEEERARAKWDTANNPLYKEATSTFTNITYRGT
Protocol: Integrin αvβ3 antagonistic activity was first measured in a vitronectin-vitronectin receptor binding assay system in accordance with the method of Kouns et al. (W. C. Kouns, D. Kirchhofer, P. Hadvary, A. Edenhofer, T. Weller, G. Pfenninger, H. R. Baumgartner, L. K. Jennings and B. Steiner, Blood, 80, 2539-2547 (1992)). […] A 0.1 M citric acid buffer (pH 4.3) containing 0.05% NaN3 was added in an amount of 50 μl/well to stop the reaction, followed by the measurement of the absorbance at 415 nm with a microplate reader (MTP 32, Corona Electric) (reference: 675 nm). The total binding was defined as the absorbance after a reaction using 50 μl of TBS-Tween instead of the test compound, and the non-specific binding (100% inhibition) was defined as the absorbance after a reaction using 50 μl of TBS-Tween containing 2×10^−3 M RGDS. The inhibition was calculated by the following equation: [formula]
IC50 was determined from a primary regression line of the logarithm of each concentration of the test compound and the logarithm of (100−inhibition)/inhibition.

[2] = tested on: human vascular smooth muscle cells; assay: Inhibitory activity against adhesion of human vascular smooth muscle cells to vitronectin; format: cell-based
Protocol: The adhesion of human vascular smooth muscle cells to immobilized human vitronectin was measured in accordance with the method of Liaw et al. (Liaw L, Almeida M, Hart C E, Schwartz S M, and Giachelli C M, Circulation Research, 74 (2), 214-224 (1994)).
A Dulbecco's phosphate buffer (Dulbecco's PBS(−), Nissui Pharmaceutical Co., Ltd.) solution of human plasma-derived vitronectin (CALBIOCHEM) adjusted to a concentration of 4 μg/ml was first added to wells (50 μl/well) of a microplate (Maxisorp, Nunc), and a reaction for immobilization was allowed to proceed at 4° C. overnight. After washing twice with 150 μl of Dulbecco's phosphate buffer, a Dulbecco's phosphate buffer containing 10 mg/ml of bovine serum albumin (SIGMA) was added, followed by blocking at 37° C. for one hr. […]
Next, 50 μl of a Dulbecco's modified Eagle's basal medium containing 0.1% of bovine serum albumin with a medicament added thereto was added to the wells of the human vitronectin-coated assay microplate, followed by pre-cultivation under 5% carbon dioxide at 37° C. for 10 min. […] The absorbance of the microplate thus obtained was measured at 595 nm. […] The inhibition was calculated by the following equation. IC50 was determined from a primary regression line of the logarithm of each concentration of the test compound and the logarithm of (100−inhibition)/inhibition. […]

GP IIb/IIIa, sequence (P08514 32-887 limits assumed): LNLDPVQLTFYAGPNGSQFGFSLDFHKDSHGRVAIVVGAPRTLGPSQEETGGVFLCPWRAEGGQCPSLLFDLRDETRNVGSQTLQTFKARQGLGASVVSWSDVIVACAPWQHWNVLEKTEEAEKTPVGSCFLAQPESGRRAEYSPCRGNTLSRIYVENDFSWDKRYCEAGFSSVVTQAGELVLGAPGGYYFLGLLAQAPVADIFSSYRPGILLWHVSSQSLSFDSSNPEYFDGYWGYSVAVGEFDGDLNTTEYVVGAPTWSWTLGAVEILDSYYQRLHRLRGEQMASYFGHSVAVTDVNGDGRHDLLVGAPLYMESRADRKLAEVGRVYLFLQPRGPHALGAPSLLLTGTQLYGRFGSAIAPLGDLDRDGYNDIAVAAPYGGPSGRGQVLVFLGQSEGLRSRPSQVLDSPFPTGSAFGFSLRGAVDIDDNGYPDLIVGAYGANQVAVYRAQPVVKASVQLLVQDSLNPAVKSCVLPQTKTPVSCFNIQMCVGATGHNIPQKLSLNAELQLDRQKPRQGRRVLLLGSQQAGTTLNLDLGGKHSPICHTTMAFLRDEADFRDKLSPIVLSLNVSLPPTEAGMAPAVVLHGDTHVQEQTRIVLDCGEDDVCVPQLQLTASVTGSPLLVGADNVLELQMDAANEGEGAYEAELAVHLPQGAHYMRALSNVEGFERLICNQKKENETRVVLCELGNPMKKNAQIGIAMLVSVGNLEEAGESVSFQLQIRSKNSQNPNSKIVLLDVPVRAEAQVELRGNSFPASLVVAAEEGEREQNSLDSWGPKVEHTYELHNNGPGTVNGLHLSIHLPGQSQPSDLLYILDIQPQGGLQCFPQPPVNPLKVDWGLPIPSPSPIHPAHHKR
GP IIb/IIIa, sequence (P08514 891-1039 partner limits assumed): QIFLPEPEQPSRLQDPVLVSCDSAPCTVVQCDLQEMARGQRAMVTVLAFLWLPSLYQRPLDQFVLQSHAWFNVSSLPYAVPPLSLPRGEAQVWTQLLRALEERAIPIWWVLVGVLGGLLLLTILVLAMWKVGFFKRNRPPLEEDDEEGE
GP IIb/IIIa, sequence (P05106 27-788): as the sequence (P05106 27-788) above

## O=C(NC[C@H](NS(=O)(=O)c1ccccc1)C(=O)O)c1cccc(N2CCC(NC3=NCCCN3)CC2)c1 [Example 6, (2S)-Benzenesulfonylamino-3-[3-{4-(1,4,5,6-tetrahydropyrimidin-2-ylamino)piperidin-1-yl}benzoylamino]propionic acid]
GP IIb/IIIa; result in words
  GP IIb/IIIa antagonistic activity: significant

## O=C(NC[C@H](NS(=O)(=O)c1ccccc1)C(=O)O)c1cccc(N2CCN(C3=NCCCN3)CC2)c1 [Example 3, (2S)-Benzenesulfonylamino-3-[3-{4-(1,4,5,6-tetrahydropyrimidin-2-yl)piperazin-1-yl}benzoylamino]-propionic acid]
GP IIb/IIIa
  IC50: 2 nM
[1]
  IC50: 1.3 nM

## O=C(NC[C@H](NS(=O)(=O)c1ccccc1)C(=O)O)c1cc(N2CCC(NC3=NCCCN3)CC2)cc(C(F)(F)F)c1 [Example 27, (2S)-Benzenesulfonylamino-3-[3-{4-(1,4,5,6-tetrahydropyrimidin-2-ylamino)piperidin-1-yl}-5-(trifluoromethyl)benzoylamino]propionic acid]
[2]; immobilized human vitronectin
  IC50: 96 nM
[2]; result in words
  cell adhesion inhibitory activity: potent

## O=C(NC[C@H](NS(=O)(=O)c1ccccc1)C(=O)O)c1ccc(F)c(N2CCC(NC3=NCCCN3)CC2)c1 [Example 9, (2S)-Benzenesulfonylamino-3-[4-fluoro-3-{4-(1,4,5,6-tetrahydropyrimidin-2-ylamino)piperidin-1-yl}-benzoylamino]propionic acid]
[1]
  IC50: 2 nM
